{"source": "patent US10352936B2", "about": "“Use of tumor Fas expression to determine response to anti-cancer therapy” (ApopLogic Pharmaceuticals, Inc., priority 2011, dated 2019)", "test_system": "naturally occurring appendicular osteosarcoma", "experiment": "Survival of dogs treated with neoadjuvant FasL plus standard of care versus carboplatin standard of care", "assay_type": "in vivo, dog", "details": "whole treatment group", "procedure": "Without being bound to theory, the principle of this treatment was based on a 10-day delay of therapy. The rationale for a 10-day delay approach was based on our preclinical data showing that there was statistically significant immunologic protection in animals immunized 10 days before challenge, as well as on the practicality of any delay of therapy approach. The experimental therapy was performed on Day 1, and dogs were followed to assess local and/or systemic toxicity for 10 days. At the end of the investigational period, dogs were treated using standard-of-care for OS.\nThe treatment sequence was as follows: On Day 0—history, physical, CBC, biochemical profile, urinalysis, chest radiographs, +/− bone scan. On Day 1, lesion biopsy and intratumoral injection. On Days 3, 7, and 10, toxicity monitoring with physical exam, CBC, biochemical profile, urinalysis, lameness evaluation and quality of life assessment. Day 10, amputation of affected limb.\nPatient selection, treatment, and biological sample preparation were conducted as described in Example 1. Fifty seven dogs were enrolled in the study. Two dogs were diagnosed with intramedullary tumors that were not OS, two dogs were withdrawn from the study, two dogs had pre-existing metastasis, two were lost to follow up, and four died of other causes. The rest of the patients were followed until their death, which was then determined to be disease-related (“died of disease”) or unrelated to disease recurrence (“died of other causes”).\nTable 1 depicts disease free interval (DFI), overall survival (OS), and percentage of dogs alive at 200 days following treatment and amputation that were treated with standard of care (carboplatin (carbo) control) and treated with FasL. Additionally, the disease free interval and overall survival of those dogs which had inflammation scores of 1 (low inflammation) as determined by histopathologic evaluation (see Example 1) or inflammation scores of 2-3 (moderate to high inflammation) is depicted. […]", "data": [{"smiles": "[NH2][Pt]1([NH2])[O]C(=O)C2(CCC2)C(=O)[O]1", "note": "[Carbo control, carboplatin]", "values": [{"measurement": "Disease Free Interval", "value": 213}, {"measurement": "Overall Survival", "value": 231, "unit": "days"}, {"measurement": "% Alive at 200 Days", "setting": "200 days following treatment and amputation", "value": 56, "unit": "%"}]}]}
